Peptide text beside a SMILES is read from it.

The subject of series [1] is cytochrome P450. As to the kind of experiment: Cytochrome P450 activity in HaCaT cells (P450-Glo Assay kit). It is filed as cell-based. The following applies: HaCaT human keratinocytes; peptide pretreatment 1 hour at 20, 100, 200 μM; then 50 μg/cm^2 urban particulate matter 24 hours; FIG. 3. An excerpt:
When polyaromatic hydrocarbons (PAHs) present in particulate matter penetrate into cells and bind to AHR, it promotes nuclear translocation of AHR. It is known that the AHR translocated into the nucleus forms a complex AHR/ARNT with an AHR nuclear translocator (ARNT), and this complex act as a transcription factor to promote the expression of cytochrome P450 (CYPs). In order to confirm the effect of the synthesized peptide in inhibiting cell damage caused by particulate matter, an experiment was performed for confirming whether the peptide inhibits the activity of cytochrome P450 after the cells were treated with particulate matter.
First, HaCaT cells, which are human keratinocytes, were seeded into a 96-well plate at a density of 1×10^4 cells/well. After overnight incubation, the media were replaced with serum-free media. The keratinocytes, HaCaT were pretreated with the synthesized peptides for 1 hour at each concentration (20 μM, 100 μM, and 200 μM). Then, the cells were treated with 50 μg/cm^2 of urban particulate matter (Sigma, NIST1648A) for 24 hours. After the keratinocytes were collected, the activity of cytochrome P450 was measured using P450-Glo™ Assay kit (Promega).

Series [2] concerns cytochrome P450. The series can be described thus: Cytochrome P450 activity in A549 cells (P450-Glo Assay kit). It is filed as cell-based. The following applies: A549 human alveolar epithelial cells; peptide pretreatment 1 hour at 20, 100, 200 μM; then 50 μg/cm^2 urban particulate matter 24 hours; FIG. 4. The procedure: In addition, in order to confirm whether the peptide of the present invention can suppress respiratory damage caused by particulate matter, an experiment for measuring the activity of cytochrome P450 was also performed on A549 cells, which are human alveolar epithelial cells.
First, human alveolar epithelial cells, A549 cells were seeded into a 96-well plate at a density of 1.2×10^4 cells/well. After overnight incubation, the media were replaced with serum-free media. The alveolar epithelial cells, A549 cells were pretreated with the synthesized peptides for 1 hour at each concentration (20 μM, 100 μM, and 200 μM). Then, the cells were treated with 50 μg/cm^2 of urban particulate matter (Sigma, NIST1648A) for 24 hours. After the treated cells were collected, the activity of cytochrome P450 was measured using P450-Glo™ Assay kit (Promega).

With `CSCC[C@H](NC(=O)[C@H](Cc1ccc(O)cc1)NC(=O)[C@@H](N)Cc1c[nH]c2ccccc12)C(=O)O` [SEQ ID NO: 1, Trp Tyr Met] (H-Trp-Tyr-Met-OH; N-terminus and C-terminus assumed), the “activity of cytochrome P450 increased by the treatment of particulate matter” value in the series on cytochrome P450 [1] and with cytochrome P450 [2] was “reduced” each time.

Values taken from patent US20240092829A1, “PEPTIDE HAVING PROTECTIVE ACTIVITY AGAINST CELL DAMAGE CAUSED BY PARTICULATE MATTER, AND USES FOR SAME” (CAREGEN CO., LTD., priority 2020, published 2024).
